# Experimental data: patent publication US20250144094A1 (Erasca, Inc., priority 2021, published 2025)
# Target: Recombinant human ULK1 (1-649) (Homo sapiens (Human), UniProt O75385)
# Assay: ULK1 ADP Glo kinase activity assay (MBP substrate)
# Conditions: 25° C., 40 minutes, read-out: ULK1 biochemical IC50
# Summary of the method: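 GST-tagged ULK1 (1-649) from Sf9 cells phosphorylated MBP, with ATP, for 40 min at 25 °C across a 12-point series from 10 uM. ADP formed was quantified by ADP-Glo luminescence against DMSO controls. IC50 came from a four-parameter variable-slope fit of log concentration.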
# Recombinant human ULK1 (1-649), sequence (O75385 1-649): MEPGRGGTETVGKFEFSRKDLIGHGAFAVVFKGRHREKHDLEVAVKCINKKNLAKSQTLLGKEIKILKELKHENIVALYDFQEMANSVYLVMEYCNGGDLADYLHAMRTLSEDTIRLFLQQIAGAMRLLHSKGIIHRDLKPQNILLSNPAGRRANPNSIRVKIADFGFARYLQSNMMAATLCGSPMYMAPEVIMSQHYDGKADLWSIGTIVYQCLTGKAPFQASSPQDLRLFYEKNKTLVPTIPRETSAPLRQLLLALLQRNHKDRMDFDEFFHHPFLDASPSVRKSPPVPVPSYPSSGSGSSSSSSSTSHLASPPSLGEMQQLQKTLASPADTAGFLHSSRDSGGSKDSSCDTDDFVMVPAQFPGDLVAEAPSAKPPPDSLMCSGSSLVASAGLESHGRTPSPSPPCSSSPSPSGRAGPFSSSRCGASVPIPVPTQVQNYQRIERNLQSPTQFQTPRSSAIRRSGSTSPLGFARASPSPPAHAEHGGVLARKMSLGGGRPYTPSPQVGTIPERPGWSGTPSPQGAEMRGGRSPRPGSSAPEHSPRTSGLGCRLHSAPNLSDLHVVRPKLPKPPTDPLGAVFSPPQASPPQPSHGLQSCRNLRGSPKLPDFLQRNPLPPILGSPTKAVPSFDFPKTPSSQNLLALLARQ
row,SMILES,IC50 [nM]
1,"COCCOc1sc(-c2nc(Nc3cc4c(cc3Cl)CNCC4)ncc2C(F)(F)F)cc1C(N)=O [Example 55, 5-(2-((7-chloro-1,2,3,4-tetrahydroisoquinolin-6-yl)amino)-5-(trifluoromethyl)pyrimidin-4-yl)-2-(2-methoxyethoxy)thiophene-3-carboxamide]",≤ 10
2,"COCCOc1sc(-c2nc(Nc3cc4c(cc3Cl)CNCC4)ncc2C(F)(F)F)cc1S(C)(=O)=O [Example 56, 7-chloro-N-(4-(5-(2-methoxyethoxy)-4-(methylsulfonyl)thiophen-2-yl)-5-(trifluoromethyl)pyrimidin-2-yl)-1,2,3,4-tetrahydroisoquinolin-6-amine]",≤ 10
3,"COCCOc1sc(-c2nc(Nc3cc4c(cc3Cl)CN(C)CC4)ncc2C(F)(F)F)cc1S(C)(=O)=O [Example 57, 7-chloro-N-(4-(5-(2-methoxyethoxy)-4-(methylsulfonyl)thiophen-2-yl)-5-(trifluoromethyl)pyrimidin-2-yl)-2-methyl-1,2,3,4-tetrahydroisoquinolin-6-amine]",≤ 10
4,"CS(=O)(=O)c1cc(-c2nc(Nc3cc4c(cc3Cl)CNCC4)ncc2C(F)(F)F)sc1C(=O)N1CCOCC1 [Example 58, (5-(2-((7-chloro-1,2,3,4-tetrahydroisoquinolin-6-yl)amino)-5-(trifluoromethyl)pyrimidin-4-yl)-3-(methylsulfonyl)thiophen-2-yl)(morpholino)methanone]",100 to 500
5,"CS(=O)(=O)c1cc(-c2nc(Nc3cc4c(cc3Cl)CNCC4)ncc2C(F)(F)F)sc1C(N)=O [Example 59, 5-(2-((7-chloro-1,2,3,4-tetrahydroisoquinolin-6-yl)amino)-5-(trifluoromethyl)pyrimidin-4-yl)-3-(methylsulfonyl)thiophene-2-carboxamide]",≤ 10
6,"O=S1(=O)CCCOc2sc(-c3nc(Nc4cc5c(cc4Cl)CNCC5)ncc3C(F)(F)F)cc21 [Example 60, 2-(2-((7-chloro-1,2,3,4-tetrahydroisoquinolin-6-yl)amino)-5-(trifluoromethyl)pyrimidin-4-yl)-6,7-dihydro-5H-thieno[2,3-b][1,4]oxathiepine 4,4-dioxide]",≤ 10
7,"CN1CCc2cc(Nc3ncc(C(F)(F)F)c(-c4cc(S(C)(=O)=O)c(C(=O)N5CCOCC5)s4)n3)c(Cl)cc2C1 [Example 61, (5-(2-((7-chloro-2-methyl-1,2,3,4-tetrahydroisoquinolin-6-yl)amino)-5-(trifluoromethyl)pyrimidin-4-yl)-3-(methylsulfonyl)thiophen-2-yl)(morpholino)methanone]",100 to 500
8,"CS(=O)(=O)c1cc(-c2nc(Nc3cc4c(cc3Cl)CNCC4)ncc2C(F)(F)F)sc1CN1CCOCC1 [Example 62, 7-chloro-N-(4-(4-(methylsulfonyl)-5-(morpholinomethyl)thiophen-2-yl)-5-(trifluoromethyl)pyrimidin-2-yl)-1,2,3,4-tetrahydroisoquinolin-6-amine]",10 to 50
9,"CN1CCc2cc(Nc3ncc(C(F)(F)F)c(-c4cc(S(C)(=O)=O)c(C(N)=O)s4)n3)c(Cl)cc2C1 [Example 63, 5-(2-((7-Chloro-2-methyl-1,2,3,4-tetrahydroisoquinolin-6-yl)amino)-5-(trifluoromethyl)pyrimidin-4-yl)-3-(methylsulfonyl)thiophene-2-carboxamide]",≤ 10
10,"O=S1(=O)CCNCc2sc(-c3nc(Nc4cc5c(cc4Cl)CNCC5)ncc3C(F)(F)F)cc21 [Example 64, 7-(2-((7-chloro-1,2,3,4-tetrahydroisoquinolin-6-yl)amino)-5-(trifluoromethyl)pyrimidin-4-yl)-2,3,4,5-tetrahydrothieno[2,3-f][1,4]thiazepine 1,1-dioxide]",≤ 10
11,"COCCOc1sc(-c2nc(Nc3cc4c(cc3Cl)CN(C)CC4)ncc2C(F)(F)F)cc1C(N)=O [Example 66, 5-(2-((7-chloro-2-methyl-1,2,3,4-tetrahydroisoquinolin-6-yl)amino)-5-(trifluoromethyl)pyrimidin-4-yl)-2-(2-methoxyethoxy)thiophene-3-carboxamide]",≤ 10
12,"CN1CCc2cc(Nc3ncc(C(F)(F)F)c(-c4cc(S(C)(=O)=O)c(CN5CCOCC5)s4)n3)c(Cl)cc2C1 [Example 67, 7-chloro-2-methyl-N-(4-(4-(methylsulfonyl)-5-(morpholinomethyl)thiophen-2-yl)-5-(trifluoromethyl)pyrimidin-2-yl)-1,2,3,4-tetrahydroisoquinolin-6-amine]",10 to 50
13,"CSc1cc2c(cc1Nc1ncc(C(F)(F)F)c(-c3cc(S(C)(=O)=O)cs3)n1)CCN(C)C2 [Example 68, 2-methyl-N-(4-(4-(methylsulfonyl)thiophen-2-yl)-5-(trifluoromethyl)pyrimidin-2-yl)-7-(methylthio)-1,2,3,4-tetrahydroisoquinolin-6-amine]",≤ 10
14,"CN1CCc2cc(Nc3ncc(C(F)(F)F)c(-c4cc5c(s4)CNCCS5(=O)=O)n3)c(Cl)cc2C1 [Example 69, 7-(2-((7-chloro-2-methyl-1,2,3,4-tetrahydroisoquinolin-6-yl)amino)-5-(trifluoromethyl)pyrimidin-4-yl)-2,3,4,5-tetrahydrothieno[2,3-f][1,4]thiazepine 1,1-dioxide]",≤ 10
15,"O=C1NCCOc2sc(-c3nc(Nc4cc5c(cc4Cl)CNCC5)ncc3C(F)(F)F)cc21 [Example 71, 7-(2-((7-chloro-1,2,3,4-tetrahydroisoquinolin-6-yl)amino)-5-(trifluoromethyl)pyrimidin-4-yl)-3,4-dihydrothieno[3,2-f][1,4]oxazepin-5(2H)-one]",≤ 10
16,"CCc1cc2c(cc1Nc1ncc(C(F)(F)F)c(-c3cc(S(C)(=O)=O)cs3)n1)CNC2 [Example 72, 6-ethyl-N-(4-(4-(methylsulfonyl)thiophen-2-yl)-5-(trifluoromethyl)pyrimidin-2-yl)isoindolin-5-amine]",≤ 10
17,"CS(=O)(=O)c1csc(-c2nc(Nc3cc4c(cc3Cl)CNC4)ncc2C(F)(F)F)c1 [Example 73, 6-chloro-N-(4-(4-(methylsulfonyl)thiophen-2-yl)-5-(trifluoromethyl)pyrimidin-2-yl)isoindolin-5-amine]",≤ 10
18,"CS(=O)(=O)c1cc(-c2nc(Nc3cc4c(cc3Cl)CNCC4)ncc2C(F)(F)F)sc1C1=CCOCC1 [Example 75, 7-chloro-N-(4-(5-(3,6-dihydro-2H-pyran-4-yl)-4-(methylsulfonyl)thiophen-2-yl)-5-(trifluoromethyl)pyrimidin-2-yl)-1,2,3,4-tetrahydroisoquinolin-6-amine]",≤ 10
19,"CCc1cc2c(cc1Nc1ncc(C(F)(F)F)c(-c3cc(S(C)(=O)=O)cs3)n1)CN(C)C2 [Example 76, 6-ethyl-2-methyl-N-(4-(4-(methylsulfonyl)thiophen-2-yl)-5-(trifluoromethyl)pyrimidin-2-yl)isoindolin-5-amine]",10 to 50
20,"CS(=O)(=O)c1cc(-c2nc(Nc3cc4c(cc3Cl)CNCC4)ncc2C(F)(F)F)sc1C1=CCS(=O)(=O)CC1 [Example 78, 4-(5-(2-((7-chloro-1,2,3,4-tetrahydroisoquinolin-6-yl)amino)-5-(trifluoromethyl)pyrimidin-4-yl)-3-(methylsulfonyl)thiophen-2-yl)-3,6-dihydro-2H-thiopyran 1,1-dioxide]",≤ 10
21,"Cc1c(S(C)(=O)=O)csc1-c1nc(Nc2cc3c(cc2Cl)CNCC3)ncc1C(F)(F)F [Example 79, 7-chloro-N-(4-(3-methyl-4-(methylsulfonyl)thiophen-2-yl)-5-(trifluoromethyl)pyrimidin-2-yl)-1,2,3,4-tetrahydroisoquinolin-6-amine]",100 to 500
22,"CN1Cc2cc(F)c(Nc3ncc(C(F)(F)F)c(-c4cc(S(C)(=O)=O)cs4)n3)cc2C1 [Example 80, 6-fluoro-N-[4-(4-methanesulfonylthiophen-2-yl)-5-(trifluoromethyl)pyrimidin-2-yl]-2-methyl-2,3-dihydro-1H-isoindol-5-amine]",≤ 10
23,"O=C1NCCS(=O)(=O)c2cc(-c3nc(Nc4cc5c(cc4Cl)CNCC5)ncc3C(F)(F)F)sc21 [Example 82, 7-[2-[(7-chloro-1,2,3,4-tetrahydroisoquinolin-6-yl)amino]-5-(trifluoromethyl)pyrimidin-4-yl]-1,1-dioxo-3,4-dihydro-2H-thieno[2,3-f][1,4]thiazepin-5-one]",≤ 10
24,"CS(=O)(=O)c1cc(-c2nc(Nc3cc4c(cc3Cl)CNCC4)ncc2C(F)(F)F)sc1N1CCOCC1 [Example 83, 7-Chloro-N-[4-(4-methylsulfonyl-5-morpholino-2-thienyl)-5-(trifluoromethyl)pyrimidin-2-yl]-1,2,3,4-tetrahydroisoquinolin-6-amine]",≤ 10
25,"O=S1(=O)NCCCc2sc(-c3nc(Nc4cc5c(cc4Cl)CNCC5)ncc3C(F)(F)F)cc21 [Example 84, 7-(2-((7-chloro-1,2,3,4-tetrahydroisoquinolin-6-yl)amino)-5-(trifluoromethyl)pyrimidin-4-yl)-2,3,4,5-tetrahydrothieno[2,3-f][1,2]thiazepine 1,1-dioxide]",≤ 10
26,"O=S1(=O)NCCOc2sc(-c3nc(Nc4cc5c(cc4Cl)CNCC5)ncc3C(F)(F)F)cc21 [Example 85, 7-chloro-N-[4-(1,1-dioxo-3,4-dihydro-2H-thieno[2,3-b][1,4,5]oxathiazepin-7-yl)-5-(trifluoromethyl)pyrimidin-2-yl]-1,2,3,4-tetrahydroisoquinolin-6-amine]",≤ 10
27,"CN1CCc2cc(Nc3ncc(C(F)(F)F)c(-c4cc5c(s4)C(=O)NCCS5(=O)=O)n3)c(Cl)cc2C1 [Example 86, 7-(2-((7-chloro-2-methyl-1,2,3,4-tetrahydroisoquinolin-6-yl)amino)-5 (trifluoromethyl)pyrimidin-4-yl)-3,4-dihydrothieno[2,3-f][1,4]thiazepin-5(2H)-one 1,1-dioxide]",≤ 10
28,"CN1CCc2cc(Nc3ncc(C(F)(F)F)c(-c4cc(S(C)(=O)=O)c(C5CCOCC5)s4)n3)c(Cl)cc2C1 [Example 87, 7-chloro-2-methyl-N-(4-(4-(methylsulfonyl)-5-(tetrahydro-2H-pyran-4-yl)thiophen-2-yl)-5-(trifluoromethyl)pyrimidin-2-yl)-1,2,3,4-tetrahydroisoquinolin-6-amine]",≤ 10
